Results on 17 substances are retold here after US20130156819A1, “ISOLATION OF MESENCHYMAL STEM CELLS” (Baden-Württemberg Stiftung gGmbH, priority 2010, published 2013).

Assay [1] has as its system MSCs. The assay can be described thus: Adhesion of MSCs to BSA-coupled peptide microarrays (MSA technology). It is filed as cell-based, human. The conditions noted are these: peptide coupled to bovine serum albumin, incubation two hours, FIG. 2. The protocol: (§1) The adhesion of cells to peptides was also measured using the MSA™ technology (see Kuschel et al., 2006) as above in example 1. Instead of the extracellular matrix proteins, however, peptides coupled to bovine serum albumin were printed in the form of microarrays (8×8 microspots) onto the nitrocellulose layer, and then the remaining surface was sealed. For incubation with cells, small silicone chambers were placed on the coated slides, and incubated with MSCs or fibroblasts. After incubation for two hours, the non-adherent cells were washed away.
(§2) Adherent cells were made visible on the white nitrocellulose film by staining with Coomassie Blue and were evaluated in a motorized photomicroscope: the number of blue cells or the color intensity per spot is measured and transferred to tables for evaluation.
(§3) Evaluation of these arrays using the semi-automatic photomicroscope gave the relative binding strength on PLL (standardized to 100%, positive control) and BSA (standardized to 0%, negative control) for the peptides tested in each case.

The test system of assay [2] is fibroblasts. Description: Adhesion of fibroblasts to BSA-coupled peptide microarrays (MSA technology). It is filed as cell-based, human. Particulars: peptide coupled to bovine serum albumin, incubation two hours, FIG. 3. The protocol:
as §1, §2, §3

Assay [3] deals with human mesenchymal stem cells (MSC). The assay can be described thus: Adherence of MSCs on immobilized matrix proteins (Multiple Substrate Array chip). The assay is classed as cell-based. The conditions noted are these: immobilized protein on MSA chip, 20 000 cells/test chamber, FIG. 1. The protocol:
The adherence of human mesenchymal stem cells (MSC, samples 5 and 6 in FIG. 1) and human fibroblasts (samples 1 to 4 in FIG. 1) on matrix proteins was investigated in a comparative test. The investigation was carried out using a chip (Multiple Substrate Array (MSA®)), on which the proteins were immobilized. The procedure used as such was as described in Kuschel et al., “Cell adhesion profiling using extracellular matrix protein microarrays”, Biotechniques 40: 523-531 (2006).
MSCs were enriched from bone marrow by density gradient centrifugation, cultivated as an adherent population in MSC-expansion medium, and harvested. The differentiation potential was tested on an aliquot and adipogenic, chondrogenic and osteogenic differentiation was confirmed. Therefore the cells fulfill the physiological requirements for MSCs (M. Dominici et al. 2006, Cytotherapy, 8: 315 ff). […]
Fibroblasts were isolated from the synovial membrane and expanded as described (Aicher et al. 1994 J. Immunol. 152: 5940 ff). The cells were harvested, washed, counted and in each case 20 000/test chamber were investigated using MSA™ chip technology for adherence to proteins. […] Cells adhering to the proteins were fixed chemically and their nuclei were marked with dye, for quantitation of the number of adherent cells per microspot of protein. […]

Square brackets hold non-standard residues; d marks the D form. Ends that are not written are not given here. Orn = NCCC[C@H](N)C(=O)O; DOA = not defined here; Doa = not defined here

For “DRVPHSRNSIT-OH (listed as Homo sapiens) [No. 20]”, the “adhesion of MSCs to the peptide” value in assay [1] is “make the adhesion of MSCs possible”. In addition, the “adhesion of fibroblasts to the peptide” value in assay [2] is “not that of fibroblasts”.

“DVISLYNFKHIY-OH (listed as Homo sapiens) [No. 16]”: the “adhesion of MSCs to the peptide” value in assay [1] is on record as “make the adhesion of MSCs possible”. The “adhesion of fibroblasts to the peptide” value in assay [2] was “not that of fibroblasts”. Turning to “EILDV-COOH (EILDV-OH; listed as Homo sapiens) [No. 22-COOH]”, in assay [1], the “adhesion of MSCs to the peptide” value is “make the adhesion of MSCs possible”. Moreover, the “adhesion of fibroblasts to the peptide” value in assay [2] is on record as “not that of fibroblasts”. Turning to “EILDV-OH (listed as Homo sapiens) [No. 22]”, the “adhesion of MSCs to the peptide” value in assay [1] is reported as “make the adhesion of MSCs possible”. Also, in assay [2], the “adhesion of fibroblasts to the peptide” value was “not that of fibroblasts”. For “GEFYFDLRLKGDK-OH (listed as Homo sapiens) [No. 5]”, the “adhesion of MSCs to the peptide” value in assay [1] is listed as “make the adhesion of MSCs possible”. The “adhesion of fibroblasts to the peptide” value in assay [2] is “not that of fibroblasts”. Turning to “GF-Orn-GER-OH (GF[Orn]GER-OH; N-terminus assumed; SMILES N=C(N)NCCC[C@H](NC(=O)[C@H](CCC(=O)O)NC(=O)CNC(=O)[C@H](CCCN)NC(=O)[C@H](Cc1ccccc1)NC(=O)CN)C(=O)O) [No. 1]”, in assay [1], the “adhesion of MSCs to the peptide” value was “make the adhesion of MSCs possible”. The “adhesion of fibroblasts to the peptide” value in assay [2] is reported as “not that of fibroblasts”. As to “GRGDSO-OH (GRGDS[Orn]-OH; N-terminus assumed; SMILES N=C(N)NCCC[C@H](NC(=O)CN)C(=O)NCC(=O)N[C@@H](CC(=O)O)C(=O)N[C@@H](CO)C(=O)N[C@@H](CCCN)C(=O)O; listed as Homo sapiens) [No. 11]”, in assay [1], the “adhesion of MSCs to the peptide” value was “make the adhesion of MSCs possible”. In assay [2], the “adhesion of fibroblasts to the peptide” value is on record as “not that of fibroblasts”. Regarding “KREDVY-COOH (KREDVY-OH; listed as Homo sapiens) [No. 21-COOH]”, in assay [1], the “adhesion of MSCs to the peptide” value is recorded as “make the adhesion of MSCs possible”. For the same substance, the “adhesion of fibroblasts to the peptide” value in assay [2] is on record as “not that of fibroblasts”. On the same counts, the results for “KREDVY-OH (listed as Homo sapiens) [No. 21]” are “make the adhesion of MSCs possible” and “not that of fibroblasts”. As to “KRSR-DOA-A-OH (KRSR[DOA]A-OH; reading uncertain; also: printed as KRSR-DOA-A-OH; listed as Homo sapiens) [No. 37b]”, the “adhesion of MSCs to the peptide” value in assay [1] is recorded as “make the adhesion of MSCs possible”. The “adhesion of fibroblasts to the peptide” value in assay [2] is “not that of fibroblasts”.

For “LAIKNDNLVYVY-OH (listed as Homo sapiens) [No. 15]”, the “adhesion of MSCs to the peptide” value in assay [1] is on record as “make the adhesion of MSCs possible”. In addition, the “adhesion of fibroblasts to the peptide” value in assay [2] is given as “not that of fibroblasts”. On the same counts, the results for “LRE-Doa-A-OH (LRE[Doa]A-OH; reading uncertain; also: printed as LRE-Doa-A-OH; listed as Homo sapiens) [No. 9-COOH]” are “make the adhesion of MSCs possible” and “not that of fibroblasts”. As to “LRE-OH (Leu-Arg-Glu-OH; listed as Homo sapiens) [No. 9]”, the “adhesion of MSCs to the peptide” value in assay [1] is reported as “make the adhesion of MSCs possible”. Also, the “adhesion of fibroblasts to the peptide” value in assay [2] is “not that of fibroblasts”. Consider “WTPPRAQITGYRLTVGLTRR-OH (listed as Homo sapiens) [No. 30]”, for which the “adhesion of MSCs to the peptide” value in assay [1] is “make the adhesion of MSCs possible”. For the same substance, the “adhesion of fibroblasts to the peptide” value in assay [2] is reported as “not that of fibroblasts”. In the same order, the values of “YIIR-DOA-A-OH (YIIR[DOA]A-OH; reading uncertain; also: printed as YIIR-DOA-A-OH; listed as Homo sapiens) [No. 34-COOH]” are “make the adhesion of MSCs possible” and “not that of fibroblasts”. On to “YIIR-OH (listed as Homo sapiens) [No. 34]”, for which, in assay [1], the “adhesion of MSCs to the peptide” value was “make the adhesion of MSCs possible”. In addition, the “adhesion of fibroblasts to the peptide” value in assay [2] is listed as “not that of fibroblasts”. Regarding “tenascin-C: oligomeric glycoprotein of the extracellular matrix, immobilized on the chip”, the “binding of the MSCs to the protein compared with binding of fibroblasts” value in assay [3] is given as “firmer”.
